Experimental data published in the supplement of paper PMC8149375.

What was measured:
Settings in all cases: treatment: drug alone; 5 days
786-O [1] = assay: GI50, drug alone; higher = less potent
Method: (§1)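 Primary HTS: 8 RCC cell lines treated with 8 doses (up to 10 uM) of each library drug alone for 5 days; viability read by CellTiter-Glo and normalised to DMSO. GI50 was fitted with XLfit (4-parameter), AUC is the area under the dose-response curve, and minimum viability is the lowest fraction of DMSO viability across doses.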

UO-31 [2] = assay: GI50, drug alone; higher = less potent
Method: as §1

CAKI-1 [3] = assay: GI50, drug alone; higher = less potent
Method: as §1

A498 [4] = assay: GI50, drug alone; higher = less potent
Method: as §1

SN12C [5] = assay: GI50, drug alone; higher = less potent
Method: as §1

769-P [6] = assay: GI50, drug alone; higher = less potent
Method: as §1

TK-10 [7] = assay: GI50, drug alone; higher = less potent
Method: as §1

ACHN [8] = assay: GI50, drug alone; higher = less potent
Method: as §1

786-O [9] = assay: minimum viability across doses, drug alone, relative to DMSO (fraction); higher = less growth inhibition
Method: as §1

UO-31 [10] = assay: as above
Method: as §1

CAKI-1 [11] = assay: as above
Method: as §1

A498 [12] = assay: as above
Method: as §1

SN12C [13] = assay: as above
Method: as §1

769-P [14] = assay: as above
Method: as §1

TK-10 [15] = assay: as above
Method: as §1

ACHN [16] = assay: as above
Method: as §1

786-O [17] = assay: AUC of dose-response viability curve, drug alone (arbitrary (AUC of normalised viability)); higher = less growth inhibition
Method: as §1

UO-31 [18] = assay: as above
Method: as §1

CAKI-1 [19] = assay: as above
Method: as §1

A498 [20] = assay: as above
Method: as §1

SN12C [21] = assay: as above
Method: as §1

769-P [22] = assay: as above
Method: as §1

TK-10 [23] = assay: as above
Method: as §1

ACHN [24] = assay: as above
Method: as §1

Structure (SMILES) | GI50, drug alone (786-O [1]) [µM] | GI50, drug alone (ACHN [8]) [µM] | GI50, drug alone (UO-31 [2]) [µM] | GI50, drug alone (CAKI-1 [3]) [µM] | GI50, drug alone (A498 [4]) [µM] | GI50, drug alone (SN12C [5]) [µM] | GI50, drug alone (769-P [6]) [µM] | GI50, drug alone (TK-10 [7]) [µM] | minimum viability across doses (786-O [9]) | minimum viability across doses (UO-31 [10]) | minimum viability across doses (CAKI-1 [11]) | minimum viability across doses (A498 [12]) | minimum viability across doses (SN12C [13]) | minimum viability across doses (769-P [14]) | minimum viability across doses (TK-10 [15]) | minimum viability across doses (ACHN [16]) | AUC of dose-response viability curve (786-O [17]) | AUC of dose-response viability curve (UO-31 [18]) | AUC of dose-response viability curve (CAKI-1 [19]) | AUC of dose-response viability curve (A498 [20]) | AUC of dose-response viability curve (SN12C [21]) | AUC of dose-response viability curve (769-P [22]) | AUC of dose-response viability curve (TK-10 [23]) | AUC of dose-response viability curve (ACHN [24])
S=C(NCc1ccc2c(c1)OCO2)N1CCN(c2ncnc3c2oc2ccccc23)CC1 [Amuvatinib (MP-470)_R2] | 0.00825 | 2.42 | 2.57 | > 10 | 4.19 | 1.56 | > 10 | 2.27 | 0.0372 | 0.0813 | 0.749 | 0.131 | 0.0284 | 0.578 | 0.198 | 0.151 | 1.54 | 3.43 | 3.34 | 3.12 | 2.51 | 3.38 | 2.19 | 2.69
Cc1cc(Nc2cc(CN3CCOCC3)c3nc(C)c(Cc4ccc(Cl)cc4F)n3n2)[nH]n1 | 0.3 | 1.98 | 7.64 | 2.28 | 8.52 | 3.84 | 4.13 | 3.03 | 0.00692 | 0.0145 | 0.0334 | 0.338 | 0.216 | 0.063 | 0.0389 | 0.103 | 1.96 | 4.69 | 3.03 | 4.33 | 2.89 | 3.12 | 2.8 | 2.79
O=C1NC(=O)C(=Cc2ccc(-c3ccc(F)cc3)o2)S1 (stereo in doubt) | > 10 | > 10 | 7.95 | > 10 | > 10 | > 10 | > 10 | > 10 | 0.566 | 0.311 | 0.882 | 0.852 | 0.82 | 0.859 | 0.81 | 0.871 | 2.4 | 3.29 | 3.34 | 3.71 | 3.23 | 3.33 | 3.07 | 3.47
COc1cc2ncnc(Nc3ccc(O)c(Br)c3)c2cc1OC [WHI-P154] | > 10 | 1.51 | > 10 | 6.6 | > 10 | > 10 | > 10 | 2.48 | 0.594 | 1.1 | 0.351 | 0.955 | 0.789 | 0.553 | 0.435 | 0.27 | 3.09 | 6.61 | 3.22 | 5.3 | 3.48 | 3.27 | 2.33 | 2.49
COC(=O)c1ccc2c(c1)NC(=O)/C2=C(\Nc1ccc(N(C)C(=O)CN2CCN(C)CC2)cc1)c1ccccc1 [BIBF1120 (Vargatef)] | > 10 | 2.07 | 7.36 | 2.13 | > 10 | > 10 | > 10 | > 10 | 0.782 | 0.439 | 0.251 | 0.892 | 0.393 | 0.917 | 0.61 | 0.255 | 3.94 | 4.65 | 2.81 | 3.91 | 2.58 | 3.42 | 3.09 | 2.77
Cc1[nH]c(/C=C2/C(=O)Nc3ccc(S(=O)(=O)N(C)c4cccc(Cl)c4)cc32)c(C)c1C(=O)N1CCN(C)CC1 | 5.22 | 0.0547 | > 10 | 8.22 | > 10 | 8.02 | > 10 | > 10 | 0.265 | 1.15 | 0.425 | 0.916 | 0.412 | 0.763 | 0.753 | 0.247 | 2.76 | 4.97 | 3.3 | 3.89 | 3.01 | 3.4 | 3.36 | 2.06

Further lines, with some results ahead:

GI50, drug alone (786-O [1]) [µM] | GI50, drug alone (ACHN [8]) [µM] | Structure (SMILES) | GI50, drug alone (UO-31 [2]) [µM] | GI50, drug alone (CAKI-1 [3]) [µM] | GI50, drug alone (A498 [4]) [µM] | GI50, drug alone (SN12C [5]) [µM] | GI50, drug alone (769-P [6]) [µM] | GI50, drug alone (TK-10 [7]) [µM] | minimum viability across doses (786-O [9]) | minimum viability across doses (UO-31 [10]) | minimum viability across doses (CAKI-1 [11]) | minimum viability across doses (A498 [12]) | minimum viability across doses (SN12C [13]) | minimum viability across doses (769-P [14]) | minimum viability across doses (TK-10 [15]) | minimum viability across doses (ACHN [16]) | AUC of dose-response viability curve (786-O [17]) | AUC of dose-response viability curve (UO-31 [18]) | AUC of dose-response viability curve (CAKI-1 [19]) | AUC of dose-response viability curve (A498 [20]) | AUC of dose-response viability curve (SN12C [21]) | AUC of dose-response viability curve (769-P [22]) | AUC of dose-response viability curve (TK-10 [23]) | AUC of dose-response viability curve (ACHN [24])
2.04 | 4.2 | O=C(Nc1cccc(Nc2ncc(Br)c(NCCc3cnc[nH]3)n2)c1)N1CCCC1 [BX-912] | > 10 | 2.07 | > 10 | 5.44 | > 10 | 5.33 | 0.0508 | 0.961 | 0.139 | 0.742 | 0.266 | 0.587 | 0.292 | 0.251 | 2.16 | 3.91 | 2.59 | 4.04 | 2.94 | 3.15 | 2.81 | 3.08
> 10 | 2.71 | Cc1ccc(NC(=O)c2cccc(C(C)(C)C#N)c2)cc1Nc1ccc2ncn(C)c(=O)c2c1 [AZ628] | 4.5 | 4.38 | > 10 | > 10 | > 10 | 4.67 | 0.719 | 0.101 | 0.239 | 0.928 | 0.572 | 0.706 | 0.425 | 0.276 | 3.21 | 3.37 | 3.16 | 3.97 | 3.3 | 3.42 | 2.48 | 2.84
> 10 | > 10 | Cn1cnc(-c2cc3nccc(Oc4ccc(NC(=S)NC(=O)Cc5ccccc5)cc4F)c3s2)c1 [MGCD-265] | > 10 | > 10 | > 10 | > 10 | > 10 | > 10 | 0.785 | 1.01 | 0.635 | 0.977 | 0.674 | 0.898 | 0.938 | 0.76 | 3.29 | 5.1 | 3.59 | 4.09 | 3.45 | 3.46 | 3.44 | 3.43
